Where two headings read alike, the source gives them in different places.
Tests used:
[1] = tested on: HIV in human T4 cells; test: Anti-HIV experiments performed at the Southern Research Institute (SRI); format: cell-based; details: for Fold Increase in Potency: SRI, Control/Expt, relative to the parent drug (AZT or ddC)
Text: The results of the experiments performed at SRI are shown in Table 2; the results were expressed in terms of inhibitory concentration
These in vitro data in human cells establish that conjugating ddC drugs to DHA achieves higher activity (between >5400 fold to 55 to 13 fold) against HIV in human T4 cells. In particular, conjugation of DHA to ddC drugs at the pyrimidine ring of ddC rather than the pentose ring is preferred based upon the unexpected results of the foregoing assays.

[2] = tested on: HIV-1 (RF strain); test: NCI AIDS antiviral screen: inhibition of HIV-1 cytopathicity in T4 lymphocytes (CEM line), XTT viability; format: cell-based; details: for EC50: NCI screen, mean value
Protocol: Three DHA-ddC (compounds 8, 9, and 10 above) and one DHA-AZT conjugate (the compound described above) were sent to the National Cancer Institute's AIDS antiviral screen to test their anti-HIV activity in vitro. The compounds were provided as solutions in ethanol. The vials containing the conjugates were sealed under argon to prevent oxygen from possibly degrading the conjugates. Instructions were provided to store the vials containing the conjugates at 4° C. and to open the vials immediately before use.
The primary screen used by the NCI for anti-HIV activity utilizes the cytopathicity of HIV-1 for human T4 lymphocytes and the inhibition of such killing by drugs that inhibit viral cytotoxicity. The experimental protocols are described by Weislow et al., (J. Natl. Cancer Inst. 81:577-586, 1989) and Bader (, whose contents are incorporated herein by reference. Briefly, the compounds are diluted first in DMSO or other appropriate solvent, then diluted 1:100 in cell culture medium before preparing serial half log10 dilutions. T4 lymphocytes (CEM line) are added, and after a brief interval HIV-1 (RF strain) is added. Appropriate controls (infected and uninfected cells without compound, and non-infected cells with the compound) are included in the plate format. The cultures are incubated at 37° C. for six days during which time the cells proliferate, the virus reproduces and kills the cells. Cell viability is measured by the ability of cells to convert a colorless tetrazolium salt (XTT) to a highly colored soluble formazan. The intensity of the color is read in a spectrophotometer using an automated system. The wells are also examined microscopically to confirm the protective activity of the compounds.

[3] = Human immunodeficiency virus 1, SRI experiments, read-out: Inhibitory Concentration
[4] = Human immunodeficiency virus 1, Lymphocyte
[5] = SRI experiments, read-out: Inhibitory Concentration

SMILES	IC50 [1, 3] [nM]	Fold Increase in Potency [1] [fold]	EC50 [2, 4] [nM]	IC50 [1, 5] [nM]	also measured
Cc1cn([C@H]2CC(N=[N+]=[N-])[C@@H](CO)O2)c(=O)[nH]c1=O (stereo partly drawn) [AZT, reference compound]	100	1.0	17.7		
CC/C=C\C/C=C\C/C=C\C/C=C\C/C=C\C/C=C\CCC(=O)OC[C@H]1O[C@@H](n2cc(C)c(=O)[nH]c2=O)C[C@@H]1N=[N+]=[N-] [DHA-AZT]		1.7		60	activity relative to AZT alone ([1]; same assays as the DHA-ddC conjugates): not increased; EC50 [2]: 26.2 nM; anti-HIV activity of the conjugate relative to that of the parent drug, AZT ([2]; NCI studies): did not alter the anti-HIV activity
CC/C=C\C/C=C\C/C=C\C/C=C\C/C=C\C/C=C\CCC(=O)Nc1ccn([C@H]2CC[C@@H](CO)O2)c(=O)n1 [DHA-ddC 8]	6.93	54.8			Fold Increase in Potency over ddC ([2]; mean EC50 for ddC (moles/L) divided by EC50 of the conjugate (moles/L)): >3807 fold
CC/C=C\C/C=C\C/C=C\C/C=C\C/C=C\C/C=C\CCC(=O)Nc1ccn([C@H]2CC[C@@H](COC(=O)CC/C=C\C/C=C\C/C=C\C/C=C\C/C=C\C/C=C\CC)O2)c(=O)n1 [DHA-ddC 9]	30	12.7			
CC/C=C\C/C=C\C/C=C\C/C=C\C/C=C\C/C=C\CCC(=O)OC[C@@H]1CC[C@H](n2ccc(N)nc2=O)O1 [DHA-ddC 10]		38		10	
Nc1ccn([C@H]2CC[C@@H](CO)O2)c(=O)n1 [ddC, 2′,3′-dideoxycytidine, reference compound]		1.0	114		IC50 ([1]; Human immunodeficiency virus 1, read-out: Inhibitory Concentration): 300 nM

From patent publication US20020025943A1, “Nucleoside analog compositions and uses thereof” (priority 1997, published 2002)
